# Laboratory results reported in PMC12426922, “Fingerprinting the Intestinal Transport of Low-Molecular-Mass Advanced Glycation End-Products (AGEs) Using a Caco‑2 Transwell Model” (Journal of Agricultural and Food Chemistry, 2025).
# Values joined by “and” are separate entries in the source; they are usually repeats but may differ in a detail not shown here. Identical values can stand only once. Like-named read-outs stand apart in the source and are kept apart here. Marks after values point to notes of the source that are not given here.
# Key:
# [1] = test system: Caco-2 cell monolayer; assay: Accumulation of AGEs in the Caco-2 cell monolayer after transport experiment; format: in vitro ADME, Human; conditions: mixture, each AGE 100 μmol/L, 2 h; for percentage of the amount added at the apical side at t = 0: accumulation (intracellular): standard treatment
# Protocol: After the transport experiment, the cell monolayer on the inset membrane was washed three times with HBSS and three times with PBS. […] The samples were subsequently centrifuged at 16 000g for 20 min at 4 °C, and the supernatant was collected for further analysis by LC-MS.
# The analytical column was maintained at 40 °C throughout the quantification process. A multistep binary gradient system of water containing 0.1% (v/v) formic acid (solvent A) and acetonitrile containing 0.1% (v/v) formic acid (solvent B) was used. In the whole gradient program, the total proportion of solvents A and B is always equal to 100%. […] The initial flow rate was set to 0.30 mL/min. Subsequently, it was reduced to 0.25 mL/min at 0.3 min, which was kept until 10 min. Afterward, there was a gradual decrease, reaching 0.15 mL/min at 11 min, and this rate was maintained until 12 min. […] Between 1 and 11 min of gradient running, the line was set to MS, and for the other time periods, the line was set to waste. The retention time and mass spectrometry parameters of individual AGEs are listed in Table S1 and the chromatograms of the samples are shown in Figure S1.
# [2] = Transport of AGE mixture across Caco-2 cell layer (transwell, apical to basolateral); format: in vitro ADME, Human; conditions: human; for recovery at 2 h, 100 μmol/L: read-out: percentage of the amount added at the apical side at t = 0: recovery; for Papp at 120 min, 100 μmol/L: data from 120 min
# Protocol: (§1) Human colon carcinoma cells (Caco-2 cells) were obtained from the American Type Culture Collection (ATCC, Rockville, MD, USA). Caco-2 cells were cultured in complete culture medium, composed of DMEM GlutaMAX with 10% FBS (v/v), 1% P/S (v/v), and 1% NEAA (v/v) at 37 °C in a 5% (v/v) CO2 incubator. In this study, Caco-2 cells within passages 10–15 were utilized.
# (§2) Caco-2 cells were cultured until reaching 50%–60% confluence (undifferentiated Caco-2 cells), followed by trypsinization. Then, cells were seeded at 3 × 10^4 cells per insert in 100 μL of complete culture medium into the transwell inserts of a 24-well transwell plate, and 600 μL of complete culture medium was added to the basolateral compartments. In both the apical and basolateral compartments, the medium was renewed every other day. After 2 weeks, the transepithelial electrical resistance (TEER) value was measured using a Millicell ERS-2 Electrical Resistance System (Burlington, MA, USA) every other day. Only wells with a TEER value of >400 Ω/cm^2 were used for transport experiments. Moreover, the TEER value was measured before and after the transport experiment to ascertain that the Caco-2 cell layer remained intact during the whole transport experiment.
# (§3) Transport experiments were performed after 20 days of differentiation of the Caco-2 cells. The culture medium was replaced with HBSS (containing 1% (v/v) HEPES) 30 min prior to testing in both the apical and basolateral compartments. After the 30 min preincubation, 100 μL of HBSS containing a mixture of the 10 different AGEs including CML, CEL, GALA, argpyrimidine, MG-H1, GOLD, GOLA, MOLD, pentosidine, and pyrraline, each at 100 μmol/L, was added to the apical compartment after removing the preincubation medium, while the basolateral medium was replaced by 600 μL of HBSS. […] At 120 min, a 10 μL sample from the apical side was taken for calculating apical side retention (nontransported percentage).
# (§4) The apparent permeability coefficient (Papp) value was calculated according to the methodology described by Yee.
# (§5) AGEs were quantified by LC-MS using a Shimadzu Nexera XR LC-40D XR UPLC system (Kyoto, Japan) equipped with a UPLC Amide column (100 mm × 2.1 mm, 1.7 μm) without derivatization coupled with a Shimadzu LCMS-8045 triple quadrupole mass spectrometer (Kyoto, Japan). The analytical column was maintained at 40 °C throughout the quantification process. A multistep binary gradient system of water containing 0.1% (v/v) formic acid (solvent A) and acetonitrile containing 0.1% (v/v) formic acid (solvent B) was used. In the whole gradient program, the total proportion of solvents A and B is always equal to 100%. The gradient program was designed as follows: 75% solvent B to 12.5% solvent B from 0 to 10 min, followed by 12.5% solvent B from 10 to 11 min. […] The initial flow rate was set to 0.30 mL/min. Subsequently, it was reduced to 0.25 mL/min at 0.3 min, which was kept until 10 min. Afterward, there was a gradual decrease, reaching 0.15 mL/min at 11 min, and this rate was maintained until 12 min. […] Between 1 and 11 min of gradient running, the line was set to MS, and for the other time periods, the line was set to waste. The retention time and mass spectrometry parameters of individual AGEs are listed in Table S1 and the chromatograms of the samples are shown in Figure S1.
# [3] = test system: PepT1; assay: as above; format: in vitro ADME, Human; conditions: human, mixture, each AGE 100 μmol/L; for recovery at 2 h, 100 μmol/L: Caco-2, with Gly-Sar 10 mmol/L (apical compartment), Gly-Sar 10 mmol/L, read-out: percentage of the amount added at the apical side at t = 0: recovery; for Papp at 120 min, 100 μmol/L: Caco-2, with Gly-Sar 10 mmol/L (apical), 10 mmol/L Gly-Sar apical (PepT1 inhibition), data from 120 min
# Protocol: as §1, §2, §3, §4, §5
# [4] = test system: Caco-2 cell layer; assay: as above; format: in vitro ADME, Human; conditions: for effect of 4 °C on transport compared to 37 °C: 4 °C versus 37 °C; for percentage of the amount added at the apical side at t = 0: apical side / percentage of the amount added at the apical side at t = 0: basolateral side / percentage of the amount added at the apical side at t = 0: apical side (nontransported) / percentage of the amount added at the apical side at t = 0: basolateral side (transported): mixture, each AGE 100 μmol/L, 2 h; for percentage of the amount added at the apical side at t = 0: apical side (nontransported) / percentage of the amount added at the apical side at t = 0: basolateral side (transported): standard treatment
# Protocol: as §1, §2, §3, §4, §5
# [5] = test system: differentiated Caco-2 cells; assay: WST-1 cytotoxicity assay, viability of differentiated Caco-2 cells after 2 h exposure; format: cell-based, Human
# Protocol: as §1
# The WST-1 assay was used to quantify the viability of differentiated Caco-2 cells upon exposure to the individual AGEs and their equimolar mixture. To this end, Caco-2 cells were seeded in 96-well plates at 3 × 10^4 cells/well (100 μL) and incubated at 37 °C under 5% (v/v) CO2 for 20 days. The complete culture medium was refreshed on each alternate day. After full differentiation, the culture medium was removed, and the cells were washed with HBSS (containing 1% (v/v) HEPES) twice on the testing day. The same volume (100 μL) of HBSS containing a series of concentrations of the different individual test compounds or of a mixture containing all 10 AGEs was added from a 20-times-concentrated stock solution in HBSS. The test concentrations were designed based on the estimated daily intake of total AGEs (0.55–0.66 mg/(kg·day)) and high-exposure scenarios (1.4–1.8 mg/(kg day)). […] After exposure for 2 h, the absorbance at 440 and 620 nm was measured in a plate spectrophotometer (Molecular Devices, San Jose, CA, USA, Spectra Max M2). After measurement, the cell viability was calculated as cell viability (%)=(Atested 440 nm−Atested 620 nm)/(Acontrol 440 nm−Acontrol 620 nm)×100
# [6] = test system: Caco-2 cell monolayer; parameters: method as in our previous study; conditions: CML in single testing; ref our previous study; cited from earlier work
# [7] = Caco-2, 4 °C, mixture, each AGE 100 μmol/L
# [8] = Caco-2, cytochalasin D pretreatment, mixture, each AGE 100 μmol/L
# [9] = Caco-2, standard treatment (37 °C), equimolar mixture of 10 AGEs, each 100 μmol/L apical
# [10] = Caco-2, standard treatment, mixture, each AGE 100 μmol/L
# [11] = Caco-2, cytochalasin D 1 μg/mL, 30 min apical preincubation, mixture, each AGE 100 μmol/L
SMILES,percentage of the amount added at the apical side at t = 0: accumulation ([1]; 4 °C),percentage of the amount added at the apical side at t = 0: accumulation ([1]; Gly-Sar 10 mmol/L),percentage of the amount added at the apical side at t = 0: accumulation ([1]; cytochalasin D pretreatment),"recovery at 2 h, 100 μmol/L [2, 7]","Papp at 120 min, 100 μmol/L [2, 7]","recovery at 2 h, 100 μmol/L [2, 8]","Papp at 120 min, 100 μmol/L [2, 9]","recovery at 2 h, 100 μmol/L [2, 10]","Papp at 120 min, 100 μmol/L [2, 11]","recovery at 2 h, 100 μmol/L [3]","Papp at 120 min, 100 μmol/L [3]",effect of 4 °C on transport compared to 37 °C [4],percentage of the amount added at the apical side at t = 0: apical side ([4]; 4 °C),percentage of the amount added at the apical side at t = 0: basolateral side ([4]; 4 °C),percentage of the amount added at the apical side at t = 0: apical side ([4]; Gly-Sar 10 mmol/L),percentage of the amount added at the apical side at t = 0: basolateral side ([4]; Gly-Sar 10 mmol/L),percentage of the amount added at the apical side at t = 0: apical side ([4]; cytochalasin D pretreatment),percentage of the amount added at the apical side at t = 0: basolateral side ([4]; cytochalasin D pretreatment),percentage of the amount added at the apical side at t = 0: apical side (nontransported) [4],percentage of the amount added at the apical side at t = 0: basolateral side (transported) [4],also measured
"N[C@@H](CCCCn1cc[n+](CCCC[C@H](N)C(=O)O)c1)C(=O)O [GOLD, glyoxal-derived lysine dimer]",0.0 ± 0.0 ^c %,0.1 ± 0.0 ^a %,0.0 ± 0.0 ^ab %,89.8 ± 13.2%,0.069 ×10⁻⁶ cm/s,102 ± 9.5%,0.134 ×10⁻⁶ cm/s,95 ± 8.2%,0.32 ×10⁻⁶ cm/s,94.1 ± 8%,0.1 ×10⁻⁶ cm/s,significantly reduced,89.6 ± 13.2 ^b %,0.1 ± 0.1 ^b %,93.7 ± 7.9 ^ab %,0.2 ± 0.1 ^b %,101.2 ± 9.4 ^a %,0.8 ± 0.3 ^a %,94.6 ± 8.1 ^ab %,0.3 ± 0.2 ^b %,effect on cell viability [5]: did not affect cell viability up to the highest concentration tested
"N[C@@H](CCCCNCC(=O)O)C(=O)O [CML, N-ε-(carboxymethyl)-lysine]",0.3 ± 0.3 ^c %,6.0 ± 2.1 ^a %,3.8 ± 0.9 ^b %,90 ± 5.3%,0.105 ×10⁻⁶ cm/s,96.9 ± 5.8%,0.219 ×10⁻⁶ cm/s,93.1 ± 6.1%,0.561 ×10⁻⁶ cm/s,92.7 ± 3.1%,0.207 ×10⁻⁶ cm/s,significantly reduced,89.4 ± 5.3 ^a %,0.3 ± 0.1 ^b %,86.2 ± 3.6 ^a %,0.5 ± 0.1 ^b %,91.8 ± 5.7 ^a %,1.3 ± 0.6 ^a %,89.0 ± 6.1 ^a %,0.5 ± 0.3 ^b %,percentage of the amount added at the apical side at t = 0: accumulation (intracellular) [1]: 3.5% and 3.5 ± 0.6 ^b %; intracellular accumulation [6]: 4.5%; Papp value in the mixture as percentage of the Papp value tested in isolation in previous study ([4]; mixture versus compound in isolation (our previous study)): 57%; effect on cell viability [5]: did not affect cell viability up to the highest concentration tested
"N[C@@H](CCCCNC(=O)CO)C(=O)O [GALA, glycolic acid–lysine–amide]",0.0 ± 0.0 ^b %,0.2 ± 0.1 ^a %,0.2 ± 0.1 ^a %,89.3 ± 4.5%,0.095 ×10⁻⁶ cm/s,89.7 ± 4.6%,0.448 ×10⁻⁶ cm/s,86.2 ± 7.1%,0.87 ×10⁻⁶ cm/s,85.4 ± 3.6%,0.321 ×10⁻⁶ cm/s,significantly reduced,89.1 ± 4.5 ^a %,0.2 ± 0.1 ^c %,84.4 ± 3.6 ^a %,0.8 ± 0.2 ^b %,87.4 ± 4.3 ^a %,2.1 ± 0.8 ^a %,85.0 ± 7.1 ^a %,1.1% and 1.06% and 1.1 ± 0.3 ^b %,percentage of the amount added at the apical side at t = 0: accumulation (intracellular) [1]: 0.2 ± 0.1 ^a %; reduction of the Papp value in the presence of Gly-Sar ([4]; Gly-Sar 10 mmol/L versus standard): 28%; concentration that did not significantly affect cell viability ([5]; for the mixture: concentration of each AGE): ≤ 1500 µM
